± gives the expanded uncertainty stated by the source.
Test: activity coefficient (dimensionless); of the first substance listed, at infinite dilution; xn = mol fraction of the nth substance listed
Settings: 101.33 kPa, Liquid, Chromatography, x1 = 0

Compound | activity coefficient (303 K) | activity coefficient (313 K) | activity coefficient (323 K) | activity coefficient (333 K) | activity coefficient (343 K) | activity coefficient (353 K)
Cc1ccccc1C [1,2-dimethylbenzene] + C[n+]1ccn(CCO)c1.O=S(=O)([O-])C(F)(F)C(F)(F)C(F)(F)C(F)(F)F | 10.4 ± 0.37 | 9.7 ± 0.35 | 8.9 ± 0.32 | 7.81 ± 0.28 | 7.04 ± 0.25 | 6.52 ± 0.23
Cc1cccc(C)c1 [1,3-dimethylbenzene] + C[n+]1ccn(CCO)c1.O=S(=O)([O-])C(F)(F)C(F)(F)C(F)(F)C(F)(F)F | 11.6 ± 0.42 | 10.8 ± 0.39 | 9.86 ± 0.35 | 8.71 ± 0.31 | 7.91 ± 0.28 | 7.2 ± 0.26
Cc1ccc(C)cc1 [1,4-dimethylbenzene] + C[n+]1ccn(CCO)c1.O=S(=O)([O-])C(F)(F)C(F)(F)C(F)(F)C(F)(F)F | 11.9 ± 0.43 | 11 ± 0.39 | 9.88 ± 0.35 | 8.78 ± 0.31 | 8 ± 0.28 | 7.59 ± 0.27
C1COCCO1 [1,4-dioxane] + C[n+]1ccn(CCO)c1.O=S(=O)([O-])C(F)(F)C(F)(F)C(F)(F)C(F)(F)F | 1.67 ± 0.09 | 1.64 ± 0.09 | 1.61 ± 0.09 | 1.59 ± 0.09 | 1.56 ± 0.09 | 1.53 ± 0.09
C=CCCCCCCCC [1-decene] + C[n+]1ccn(CCO)c1.O=S(=O)([O-])C(F)(F)C(F)(F)C(F)(F)C(F)(F)F | 122 ± 4.5 | 107 ± 3.9 | 91.5 ± 3.3 | 79.6 ± 2.9 | 67.7 ± 2.5 | 59.2 ± 2.1
C#CCCCCC [1-heptyne] + C[n+]1ccn(CCO)c1.O=S(=O)([O-])C(F)(F)C(F)(F)C(F)(F)C(F)(F)F | 16.7 ± 0.6 | 15.1 ± 0.54 | 13.4 ± 0.48 | 11.9 ± 0.43 | 10.4 ± 0.37 | 9.29 ± 0.33
C#CCCCC [1-hexyne] + C[n+]1ccn(CCO)c1.O=S(=O)([O-])C(F)(F)C(F)(F)C(F)(F)C(F)(F)F | 10.4 ± 0.37 | 9.24 ± 0.33 | 7.92 ± 0.28 | 6.97 ± 0.25 | 6.03 ± 0.21 | 5.18 ± 0.19
C#CCCCCCC [1-octyne] + C[n+]1ccn(CCO)c1.O=S(=O)([O-])C(F)(F)C(F)(F)C(F)(F)C(F)(F)F | 26.2 ± 0.94 | 23.8 ± 0.85 | 21.2 ± 0.76 | 19.1 ± 0.69 | 16.9 ± 0.61 | 14.8 ± 0.53
C#CCCC [1-pentyne] + C[n+]1ccn(CCO)c1.O=S(=O)([O-])C(F)(F)C(F)(F)C(F)(F)C(F)(F)F | 5.99 ± 0.21 | 5.07 ± 0.18 | 4.21 ± 0.16 | 3.68 ± 0.14 | 3.11 ± 0.13 | 2.59 ± 0.12
CC(C)=O [acetone] + C[n+]1ccn(CCO)c1.O=S(=O)([O-])C(F)(F)C(F)(F)C(F)(F)C(F)(F)F | 0.93 ± 0.08 | 0.91 ± 0.08 | 0.9 ± 0.08 | 0.88 ± 0.08 | 0.85 ± 0.08 | 0.83 ± 0.08
CC#N [acetonitrile] + C[n+]1ccn(CCO)c1.O=S(=O)([O-])C(F)(F)C(F)(F)C(F)(F)C(F)(F)F | 0.99 ± 0.08 | 0.97 ± 0.08 | 0.93 ± 0.08 | 0.9 ± 0.08 | 0.87 ± 0.08 | 0.84 ± 0.08
c1ccccc1 [benzene] + C[n+]1ccn(CCO)c1.O=S(=O)([O-])C(F)(F)C(F)(F)C(F)(F)C(F)(F)F | 4.71 ± 0.17 | 4.27 ± 0.16 | 3.85 ± 0.15 | 3.34 ± 0.13 | 2.95 ± 0.12 | 2.65 ± 0.12
C1CCCCC1 [cyclohexane] + C[n+]1ccn(CCO)c1.O=S(=O)([O-])C(F)(F)C(F)(F)C(F)(F)C(F)(F)F | 24.3 ± 0.88 | 19.1 ± 0.69 | 15.2 ± 0.55 | 11.7 ± 0.42 | 9.39 ± 0.34 | 7.54 ± 0.27
ClCCl [dichloromethane] + C[n+]1ccn(CCO)c1.O=S(=O)([O-])C(F)(F)C(F)(F)C(F)(F)C(F)(F)F | 2.14 ± 0.11 | 1.99 ± 0.1 | 1.85 ± 0.1 | 1.69 ± 0.09 | 1.54 ± 0.09 | 1.45 ± 0.09
CCO [ethanol] + C[n+]1ccn(CCO)c1.O=S(=O)([O-])C(F)(F)C(F)(F)C(F)(F)C(F)(F)F | 1.56 ± 0.09 | 1.48 ± 0.09 | 1.38 ± 0.09 | 1.31 ± 0.09 | 1.22 ± 0.08 | 1.14 ± 0.08
CCc1ccccc1 [ethylbenzene] + C[n+]1ccn(CCO)c1.O=S(=O)([O-])C(F)(F)C(F)(F)C(F)(F)C(F)(F)F | 12.1 ± 0.43 | 11 ± 0.39 | 10.1 ± 0.36 | 8.82 ± 0.31 | 7.93 ± 0.28 | 7.09 ± 0.25
CCCCCCC [heptane] + C[n+]1ccn(CCO)c1.O=S(=O)([O-])C(F)(F)C(F)(F)C(F)(F)C(F)(F)F | 53 ± 1.9 | 39.7 ± 1.4 | 30.9 ± 1.1 | 23.6 ± 0.86 | 18 ± 0.65 | 13.9 ± 0.5
C=CCCCC [hex-1-ene] + C[n+]1ccn(CCO)c1.O=S(=O)([O-])C(F)(F)C(F)(F)C(F)(F)C(F)(F)F | 15.7 ± 0.57 | 12.4 ± 0.45 | 9.71 ± 0.35 | 7.62 ± 0.27 | 6.07 ± 0.22 | 4.97 ± 0.18
CCCCCC [hexane] + C[n+]1ccn(CCO)c1.O=S(=O)([O-])C(F)(F)C(F)(F)C(F)(F)C(F)(F)F | 23.5 ± 0.85 | 17.7 ± 0.64 | 13.7 ± 0.49 | 10.6 ± 0.38 | 8 ± 0.29 | 6.31 ± 0.23
CO [methanol] + C[n+]1ccn(CCO)c1.O=S(=O)([O-])C(F)(F)C(F)(F)C(F)(F)C(F)(F)F | 1.1 ± 0.08 | 1.02 ± 0.08 | 0.93 ± 0.08 | 0.9 ± 0.08 | 0.87 ± 0.08 | 0.82 ± 0.08
CC1CCCCC1 [methylcyclohexane] + C[n+]1ccn(CCO)c1.O=S(=O)([O-])C(F)(F)C(F)(F)C(F)(F)C(F)(F)F | 38.1 ± 1.4 | 29.7 ± 1.1 | 24.3 ± 0.88 | 19 ± 0.69 | 15.2 ± 0.55 | 12.3 ± 0.44
CCCCCCCCC [nonane] + C[n+]1ccn(CCO)c1.O=S(=O)([O-])C(F)(F)C(F)(F)C(F)(F)C(F)(F)F | 157 ± 5.7 | 132 ± 4.8 | 105 ± 3.8 | 88 ± 3.2 | 71 ± 2.6 | 54.1 ± 2
C=CCCCCCC [oct-1-ene] + C[n+]1ccn(CCO)c1.O=S(=O)([O-])C(F)(F)C(F)(F)C(F)(F)C(F)(F)F | 53.9 ± 2 | 45.2 ± 1.6 | 36.6 ± 1.3 | 29.5 ± 1.1 | 24.3 ± 0.88 | 19.9 ± 0.72
CCCCCCCC [octane] + C[n+]1ccn(CCO)c1.O=S(=O)([O-])C(F)(F)C(F)(F)C(F)(F)C(F)(F)F | 99 ± 3.6 | 75.8 ± 2.8 | 61.2 ± 2.2 | 47.3 ± 1.7 | 37.1 ± 1.4 | 28.4 ± 1
CCCCC [pentane] + C[n+]1ccn(CCO)c1.O=S(=O)([O-])C(F)(F)C(F)(F)C(F)(F)C(F)(F)F | 9.38 ± 0.34 | 6.94 ± 0.25 | 5.46 ± 0.2 | 4.34 ± 0.16 | 3.39 ± 0.14 | 2.75 ± 0.12
CCCO [propan-1-ol] + C[n+]1ccn(CCO)c1.O=S(=O)([O-])C(F)(F)C(F)(F)C(F)(F)C(F)(F)F | 2.22 ± 0.11 | 2.07 ± 0.1 | 1.91 ± 0.1 | 1.81 ± 0.1 | 1.66 ± 0.09 | 1.53 ± 0.09
C1CCOC1 [tetrahydrofuran] + C[n+]1ccn(CCO)c1.O=S(=O)([O-])C(F)(F)C(F)(F)C(F)(F)C(F)(F)F | 1.73 ± 0.1 | 1.7 ± 0.09 | 1.64 ± 0.09 | 1.59 ± 0.09 | 1.52 ± 0.09 | 1.48 ± 0.09
Cc1ccccc1 [toluene] + C[n+]1ccn(CCO)c1.O=S(=O)([O-])C(F)(F)C(F)(F)C(F)(F)C(F)(F)F | 7.4 ± 0.26 | 6.83 ± 0.24 | 6.21 ± 0.22 | 5.44 ± 0.19 | 4.94 ± 0.18 | 4.44 ± 0.16
ClC(Cl)Cl [trichloromethane] + C[n+]1ccn(CCO)c1.O=S(=O)([O-])C(F)(F)C(F)(F)C(F)(F)C(F)(F)F | 2.27 ± 0.11 | 2.2 ± 0.11 | 2.11 ± 0.1 | 2.01 ± 0.1 | 1.91 ± 0.1 | 1.84 ± 0.1

From the NIST ThermoML archive (doi:10.1021/acs.jced.8b00080)
